In patent US12319672B2, “Alpha-D-galactopyranoside derivatives” (Idorsia Pharmaceuticals Ltd, priority 2019, dated 2025) one finds IC50 data, which are given here for 30 compounds.

Experiment [1] concerns the target human Gal-1 (hGal-1). Description: Competitive binding assay: binding of biotinylated hGal-1 to microplate-adsorbed asialofetuin (ASF). Particulars: Activities on hGal-1; mean values of several measurements. A digest of the protocol:
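Spectrophotometric readout (streptavidin-peroxidase, ABTS) of biotinylated galectin retained on ASF-coated wells. Biotinylated hGal-1 or hGal-3, 300-1000 ng/mL, co-incubated with test compound 3 h at 4° C, then washed. Mean IC50 from repeat runs.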

Experiment [2] concerns the target human Gal-3 (hGal-3) (Homo sapiens (Human), UniProt P17931). The experiment in a line: Competitive binding assay: binding of biotinylated hGal-3 to microplate-adsorbed asialofetuin (ASF). As to conditions: Activity on hGal-3; mean values of several measurements. In outline:
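For hGal-1, a variant with all six cysteines replaced by serines is preferred. Either galectin, biotinylated at 300-1000 ng/mL, competes with compound for microplate-bound ASF over 3 h at 4° C; peroxidase/ABTS detection gives IC50, averaged.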

Chain of human Gal-1 (hGal-1) (P09382 2-135 limits assumed): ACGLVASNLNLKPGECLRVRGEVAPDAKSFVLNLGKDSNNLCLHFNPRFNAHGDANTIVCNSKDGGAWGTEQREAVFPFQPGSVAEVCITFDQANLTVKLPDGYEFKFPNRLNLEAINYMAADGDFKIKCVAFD
Chain of human Gal-3 (hGal-3) (P17931 whole entry): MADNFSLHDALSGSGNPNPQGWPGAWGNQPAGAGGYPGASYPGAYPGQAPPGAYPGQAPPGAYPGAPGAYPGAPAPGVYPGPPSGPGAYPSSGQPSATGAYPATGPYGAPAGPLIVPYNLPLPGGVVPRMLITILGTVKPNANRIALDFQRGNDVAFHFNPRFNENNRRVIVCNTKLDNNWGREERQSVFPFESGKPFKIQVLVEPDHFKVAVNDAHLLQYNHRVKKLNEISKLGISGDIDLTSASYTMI

With `CO[C@@H]1[C@@H](n2cc(-c3cc(F)c(F)c(F)c3)nn2)[C@@H](O)[C@@H](CO)O[C@@H]1Cc1cc(C2CCN(C(=O)NC3CC3)CC2)on1` [Example 3.59, N-cyclopropyl-4-(3-(((2R,3R,4S,5R,6R)-5-hydroxy-6-(hydroxymethyl)-3-methoxy-4-(4-(3,4,5-trifluorophenyl)-1H-1,2,3-triazol-1-yl)tetrahydro-2H-pyran-2-yl)methyl)isoxazol-5-yl)piperidine-1-carboxamide], the IC50 in experiment [1] was 0.98 µM; in experiment [2] it was 42 nM.

`CCOC(C)(C)c1cc(C[C@H]2O[C@H](CO)[C@H](O)[C@H](n3cc(-c4ccc(C)c(F)c4F)nn3)[C@H]2OC)on1` [Ex 1.327]: the IC50 came out at 4.17 µM in experiment [1] and 76 nM in experiment [2].

Take `CO[C@@H]1[C@@H](n2cc(-c3cc(F)c(F)c(F)c3)nn2)[C@@H](O)[C@@H](CO)O[C@@H]1Cc1cn(C2CCN(S(C)(=O)=O)CC2)nn1` [Example 4.07, (2R,3R,4S,5R,6R)-2-(hydroxymethyl)-5-methoxy-6-((1-(1-(methylsulfonyl)piperidin-4-yl)-1H-1,2,3-triazol-4-yl)methyl)-4-(4-(3,4,5-trifluorophenyl)-1H-1,2,3-triazol-1-yl)tetrahydro-2H-pyran-3-ol]: the IC50 was 0.1 µM in experiment [1] and 12 nM in experiment [2].

Turning to `CO[C@@H]1[C@@H](n2cc(-c3cc(F)c(Cl)c(F)c3)nn2)[C@@H](O)[C@@H](CO)O[C@@H]1Cc1cc(C2CCN(S(C)(=O)=O)CC2)on1` [Ex 1.158], the IC50 in experiment [1] was 1.52 µM; in experiment [2], 66 nM.

For `CO[C@@H]1[C@@H](n2cc(-c3ccc(Cl)c(F)c3F)nn2)[C@@H](O)[C@@H](CO)O[C@@H]1Cc1cc(C2(O)CCCC2)on1` [Ex 1.244], the values for the IC50 in experiment [1] and in experiment [2] were 3.29 µM and 110 nM, respectively.

As for `CO[C@@H]1[C@@H](n2cc(-c3cc(F)c(F)c(F)c3)nn2)[C@@H](O)[C@@H](CO)O[C@@H]1C[C@@H]1CN(C2CCN(S(C)(=O)=O)CC2)C(=O)O1` [Example 5.08, (R)-5-(((2R,3R,4S,5R,6R)-5-hydroxy-6-(hydroxymethyl)-3-methoxy-4-(4-(3,4,5-trifluorophenyl)-1H-1,2,3-triazol-1-yl)tetrahydro-2H-pyran-2-yl)methyl)-3-(1-(methylsulfonyl)piperidin-4-yl)oxazolidin-2-one], the values for the IC50 in experiment [1] and in experiment [2] were 0.16 µM and 18 nM, respectively.

Consider `CO[C@@H]1[C@@H](n2cc(-c3cc(F)c(F)c(F)c3)nn2)[C@@H](O)[C@@H](CO)O[C@@H]1Cc1cc(C2(O)CCCCC2)on1` [Ex 1.73], for which the IC50 was 3.12 µM in experiment [1] and 190 nM in experiment [2].

`CC(C)(C)OC(=O)N1CCCC(c2cc(C[C@H]3O[C@H](CO)[C@H](O)[C@H](n4cc(-c5cc(F)c(F)c(F)c5)nn4)[C@H]3O)no2)C1` (stereo partly drawn) [Ex 1.54]: the IC50 came out at 6.48 µM in experiment [1] and 290 nM in experiment [2].

`CC(=O)O[C@@H]1[C@@H](n2cc(-c3ccc(C)c(F)c3F)nn2)[C@@H](O)[C@@H](CO)O[C@@H]1Cc1cc(C(C)(C)C)on1` [Ex 1.204]: the IC50 in experiment [1] turned out to be 17.3 µM; in experiment [2], 41 nM.

As for `CO[C@@H]1[C@@H](n2cc(-c3cccc(F)c3)nn2)[C@@H](O)[C@@H](CO)O[C@@H]1Cc1cc(C2CCN(C(=O)OC(C)(C)C)CC2)no1` [Ex 1.123], the IC50 in experiment [1] is 0.14 µM; in experiment [2] it was 140 nM.

For `CC(C)(O)C1CC(C[C@H]2O[C@H](CO)[C@H](O)[C@H](n3cc(-c4cc(F)c(F)c(F)c4)nn3)[C@H]2O)=NO1` (stereo partly drawn) [Ex 1.39], the values for the IC50 in experiment [1] and in experiment [2] were 9.94 µM and 710 nM, respectively.

With `COc1ccc(C2=NO[C@@H](C[C@H]3O[C@H](CO)[C@H](O)[C@H](n4cc(-c5cc(F)c(F)c(F)c5)nn4)[C@H]3O)C2)cc1` [Ex 1.04], the IC50 in experiment [1] is > 100 µM; in experiment [2] it was 580 nM.

With `OC[C@H]1O[C@H](CC2=NOC(C3CCCCC3)C2)[C@H](O)[C@@H](n2cc(-c3cc(F)c(F)c(F)c3)nn2)[C@H]1O` (stereo partly drawn) [Ex 1.35], the IC50 was found to be 5.58 µM in experiment [1] and 1000 nM in experiment [2].

In the case of `CO[C@@H]1[C@@H](n2cc(-c3ccc(C)c(F)c3F)nn2)[C@@H](O)[C@@H](CO)O[C@@H]1Cc1cc(C2CCNC(=O)CC2)no1` (stereo partly drawn) [Ex 1.348], the IC50 in experiment [1] was 0.25 µM; in experiment [2] it was 68 nM.

Turning to `CN=[S@](=O)(C(C)C)N1CCC(c2cc(C[C@H]3O[C@H](CO)[C@H](O)[C@H](n4cc(-c5cc(F)c(F)c(F)c5)nn4)[C@H]3OC)no2)CC1` [Ex 1.139], the half-maximal inhibitory concentration (IC50) in experiment [1] came to 1.13 µM; in experiment [2], 42 nM.

On to `CO[C@@H]1[C@@H](n2cc(-c3cc(F)c(F)c(F)c3)nn2)[C@@H](O)[C@@H](CO)O[C@@H]1Cn1cc(C2(C)CCCC2)nn1` [Example 4.49, (2R,3R,4S,5R,6R)-2-(hydroxymethyl)-5-methoxy-6-((4-(1-methylcyclopentyl)-1H-1,2,3-triazol-1-yl)methyl)-4-(4-(3,4,5-trifluorophenyl)-1H-1,2,3-triazol-1-yl)tetrahydro-2H-pyran-3-ol], for which the IC50 in experiment [1] is 3.93 µM; in experiment [2] it was 240 nM.

With `CO[C@@H]1[C@@H](n2cc(-c3ccc(Br)c(F)c3F)nn2)[C@@H](O)[C@@H](CO)O[C@@H]1Cc1cc(C2CCOCC2)on1` [Ex 1.182], the IC50 in experiment [1] amounted to 4.73 µM; in experiment [2], 82 nM.

Take `OC[C@H]1O[C@H](CC2CC(c3cncnc3)=NO2)[C@H](O)[C@@H](n2cc(-c3cc(F)c(F)c(F)c3)nn2)[C@H]1O` (stereo partly drawn) [Ex 1.14]: the results for the IC50 in experiment [1] and in experiment [2] were 2.27 µM and 680 nM, respectively.

With `CO[C@@H]1[C@@H](n2cc(-c3cc(F)c(F)c(F)c3)nn2)[C@@H](O)[C@@H](CO)O[C@@H]1Cc1cc(C2CCN(C(=O)C(C)C)CC2)on1` [Example 3.33, 1-(4-(3-(((2R,3R,4S,5R,6R)-5-hydroxy-6-(hydroxymethyl)-3-methoxy-4-(4-(3,4,5-trifluorophenyl)-1H-1,2,3-triazol-1-yl)tetrahydro-2H-pyran-2-yl)methyl)isoxazol-5-yl)piperidin-1-yl)-2-methylpropan-1-one], the IC50 in experiment [1] was 1.08 µM; in experiment [2], 65 nM.

Turning to `CO[C@@H]1[C@@H](n2cc(-c3ccc(C)c(F)c3)nn2)[C@@H](O)[C@@H](CO)O[C@@H]1Cc1cc(C2CCOCC2)on1` [Ex 1.180], the IC50 was found to be 4.93 µM in experiment [1] and 180 nM in experiment [2].

Regarding `CO[C@@H]1[C@@H](n2cc(-c3ccc(C)c(F)c3F)nn2)[C@@H](O)[C@@H](CO)O[C@@H]1Cc1cc(C2(C#N)CCCC2)no1` [Ex 1.292], the half-inhibitory concentration (IC50) is 3.54 µM in experiment [1] and 51 nM in experiment [2].

As to `CO[C@@H]1[C@@H](n2cc(-c3cc(F)c(C)c(F)c3)nn2)[C@@H](O)[C@@H](CO)O[C@@H]1Cc1cc(C2CCCCC2)on1` [Ex 1.170], the IC50 in experiment [1] was > 100 µM; in experiment [2], 400 nM.

For `OC[C@H]1O[C@H](Cc2cc(C3CCNCC3)on2)[C@H](OCC(F)F)[C@@H](n2cc(-c3cc(F)c(F)c(F)c3)nn2)[C@H]1O` [Example 2.26, (2R,3R,4S,5R,6R)-5-(2,2-difluoroethoxy)-2-(hydroxymethyl)-6-((5-(piperidin-4-yl)isoxazol-3-yl)methyl)-4-(4-(3,4,5-trifluorophenyl)-1H-1,2,3-triazol-1-yl)tetrahydro-2H-pyran-3-ol], the IC50 stood at 4.49 µM in experiment [1] and 200 nM in experiment [2].

Consider `OC[C@H]1O[C@H](CC2=NOC(Cc3ccccc3)C2)[C@H](O)[C@@H](n2cc(-c3cc(F)c(F)c(F)c3)nn2)[C@H]1O` (stereo partly drawn) [Ex 1.36], for which the IC50 is 10.9 µM in experiment [1] and 2540 nM in experiment [2].

As for `CO[C@@H]1[C@@H](n2cc(-c3cc(F)c(F)c(F)c3)nn2)[C@@H](O)[C@@H](CO)O[C@@H]1Cc1cc(C2(O)CCOCC2)on1` [Ex 1.75], the values for the IC50 in experiment [1] and in experiment [2] were 3.55 µM and 400 nM, respectively.

`CO[C@@H]1[C@@H](n2cc(-c3cc(F)c(F)c(F)c3)nn2)[C@@H](O)[C@@H](CO)O[C@@H]1Cc1cc(C2CCN(S(=O)(=O)N3CCOCC3)CC2)on1` [Example 3.62, (2R,3R,4S,5R,6R)-2-(hydroxymethyl)-5-methoxy-6-((5-(1-(morpholinosulfonyl)piperidin-4-yl)isoxazol-3-yl)methyl)-4-(4-(3,4,5-trifluorophenyl)-1H-1,2,3-triazol-1-yl)tetrahydro-2H-pyran-3-ol]: the values for the IC50 in experiment [1] and in experiment [2] were 1.35 µM and 45 nM, respectively.

In the case of `CO[C@@H]1[C@@H](n2cc(-c3cc(F)c(F)c(F)c3)nn2)[C@@H](O)[C@@H](CO)O[C@@H]1CC1CC(C(C)(C)CO)=NO1` (stereo partly drawn) [Ex 1.281], the IC50 came to 2.55 µM in experiment [1] and 530 nM in experiment [2].

Regarding `CO[C@@H]1[C@@H](n2cc(-c3ccc(C)c(F)c3F)nn2)[C@@H](O)[C@@H](CO)O[C@@H]1Cc1cc(C2CCC2O)on1` (stereo partly drawn) [Ex 1.346], the IC50 in experiment [1] was 11.7 µM; in experiment [2], 100 nM.

As to `CO[C@@H]1[C@@H](n2cc(-c3cc(F)c(F)c(F)c3)nn2)[C@@H](O)[C@@H](CO)O[C@@H]1Cc1cc(C2CCN(S(=O)(=O)C(C)C)CC2)on1` [Example 3.47, (2R,3R,4S,5R,6R)-2-(hydroxymethyl)-6-((5-(1-(isopropylsulfonyl)piperidin-4-yl)isoxazol-3-yl)methyl)-5-methoxy-4-(4-(3,4,5-trifluorophenyl)-1H-1,2,3-triazol-1-yl)tetrahydro-2H-pyran-3-ol], the IC50 was 0.76 µM in experiment [1] and 50 nM in experiment [2].

For `CO[C@@H]1[C@@H](n2cc(-c3cc(F)c(F)c(F)c3)nn2)[C@@H](O)[C@@H](CO)O[C@@H]1C[C@H]1CC(c2cc[nH]c(=O)c2)=NO1` [Example 2.07b, 4-((R)-5-(((2R,3R,4S,5R,6R)-5-hydroxy-6-(hydroxymethyl)-3-methoxy-4-(4-(3,4,5-trifluorophenyl)-1H-1,2,3-triazol-1-yl)tetrahydro-2H-pyran-2-yl)methyl)-4,5-dihydroisoxazol-3-yl)pyridin-2(1H)-one], the IC50 in experiment [1] came to 11.7 µM; in experiment [2] it was 1700 nM.

Broadly, the IC50 is the concentration that inhibits the measured activity by half. Read a high IC50 as lower potency.
